# In patent US11440909B2, “10H-phenothiazine ferroptosis inhibitor as well as the preparative method and the use thereof” (CHENGDU HENGHAO INVESTMENT CO. LIMITED, priority 2018, dated 2022):
# System: fibrosarcoma cell line HT1080
# Assay: Ferroptosis screening model (MTT method), Erastin-induced ferroptosis
# Assay type: cell-based, human
# Details: HT1080, ferroptosis inducer Erastin, 72 h, average of three tests, read-out: EC50
# Method: The screening model for ferroptosis mainly used MTT method. First, the fibrosarcoma cell line HT1080 was cultured in a dish, and the cells in the logarithmic growth phase were inoculated into a 96-well plate in a certain number (3000-10000 cells/well), 100 μL per well, and then the plate was put in an 5% CO2 incubator at 37° C., to allow the cells to adhere. After 24 h, 100 μL compound solution at a certain concentration prepared in the designated medium and ferroptosis inducer Erastin (with a final concentration of […]) were added, setting 3 replicate wells for each compound to ensure the accuracy of the results, and a negative control group, a positive control group (Fer-15 μM), a blank control group and a solvent control group were included. After addition of drugs, the plate was placed in an incubator and cultivated for 72 h. On the day of MTT experiment, MTT test solution (5 mg/mL MTT solution dissolved in physiological saline, and stored in the dark at 4° C.) was pre-prepared and 20 μL MTT solution was added to each well, then the plate was put in an incubator and continued to incubate for 2-4 h. After that, 50 μL of 20% SDS solution (dissolved in MiliiQ water, added with 1% concentrated hydrochloric acid) was added to each well and kept in an incubator overnight. On the next day, the absorbance at 570 nm was measured with a microplate reader, to calculate the inhibition rate of drugs on ferroptosis. Generally, the absorbance value of the control group should be in the range of 0.8-1.2 as a normal value.
# GraphPadPrism5 software was used to fit the change curve of inhibition rate and calculate the EC50.
row,SMILES,EC50 [nM]
1,"CC(c1ccc2c(c1)Nc1ccccc1S2)S(=O)(=O)N1CCN(c2ccccc2)CC1 (stereo not shown) [Compound C28, 2-(1-((4-phenylpiperazin-1-yl)sulfonyl)ethyl)-10H-phenothiazine]",142
2,"C=C(c1ccc(N2CCOCC2)cc1)c1ccc2c(c1)Nc1ccccc1S2 [Compound B15, 4-(4-(1-(10H-phenothiazin-2-yl)ethenyl)phenyl)morpholine]",680
3,"CCOC(=O)c1ccc(NC2CCCCC2)c(N)c1 [Fer-1, Ferrostatin-1, reference compound]",60
4,"CC(c1ccc2c(c1)Nc1ccccc1S2)c1c2ccccc2cc2ccccc12 (stereo not shown) [Compound A71, 2-(1-(anthrathen-9-yl)ethyl)-10H-phenothiazine]",17
5,"CC(C)Oc1ccc(C(C)c2ccc3c(c2)Nc2ccccc2S3)cc1 (stereo not shown) [Compound A34, 2-(1-(4-isopropoxylphenyl)ethyl)-10H-phenothiazine]",65

# Same assay, conditions: Homo sapiens, HT-1080, 72 h, HT1080, ferroptosis inducer Erastin, 72 h, average of three tests, read-out: EC50
row,SMILES,EC50 [nM]
1,"C=C(c1ccc2c(c1)Nc1ccccc1S2)c1ccc(C(=O)Nc2ccc(CN3CCN(C)CC3)c(C(F)(F)F)c2)cc1C [Compound B46, 4-(1-(10H-phenothiazin-2-yl)ethenyl)-3-methyl-N-(4-((4-methylpiperazin-1-yl)methyl)-3-(trifluoromethyl)phenyl)benzamide]",10
2,"CCCOc1ccc(C(C)c2ccc3c(c2)Nc2ccccc2S3)cc1 (stereo not shown) [Compound A32, 2-(1-(4-propoxylphenyl)ethyl)-10H-phenothiazine]",62
3,"CC(c1cc(C(F)(F)F)cc(C(F)(F)F)c1)c1ccc2c(c1)Nc1ccccc1S2 (stereo not shown) [Compound A58, 2-(1-(3,5-bis(trifluoromethyl)phenyl)ethyl)-10H-phenothiazine]",19
4,"CCOC(=O)[C@@H]1CCCN(S(=O)(=O)C(C)c2ccc3c(c2)Nc2ccccc2S3)C1 (stereo partly drawn) [Compound C39, ethyl (3R)-1-((1-(10H-phenothiazin-2-yl)ethyl)sulfonyl)piperidin-3-formate]",244
5,"CC(c1ccc(Cl)c(F)c1)c1ccc2c(c1)Nc1ccccc1S2 (stereo not shown) [Compound A44, 2-(1-(4-chloro-3-fluorophenyl)ethyl)-10H-phenothiazine]",19
6,"CC(c1ccc(C(C)(C)C)cc1)c1ccc2c(c1)Nc1ccccc1S2 (stereo not shown) [Compound A29, 2-(1-(4-t-butylphenyl)ethyl)-10H-phenothiazine]",7
7,"C=C(c1ccc(NC(C)=O)nc1)c1ccc2c(c1)Nc1ccccc1S2 [Compound B43, N-(5-(1-(10H-phenothiazin-2-yl)ethenyl)pyridin-2-yl)acetylamine]",4
8,"CCc1ccc(C(C)c2ccc3c(c2)Nc2ccccc2S3)cc1 (stereo not shown) [Compound A24, 2-(1-(4-ethylphenyl)ethyl)-10H-phenothiazine]",20
9,"C=C(c1cccc(C(C)C)c1)c1ccc2c(c1)Nc1ccccc1S2 [Compound B27, 2-(1-(3-isopropylphenyl)ethenyl)-10H-phenothiazine]",38
10,"C=C(c1ccc2c(c1)Nc1ccccc1S2)c1ccc(OC)c(OC)c1 [Compound B39, 2-(1-(3,4-dimethoxylphenyl)ethenyl)-10H-phenothiazine]",23
11,"CC(c1ccc2c(c1)Nc1ccccc1S2)S(=O)(=O)N1CCC[C@@H](NC(=O)OC(C)(C)C)C1 (stereo partly drawn) [Compound C32, t-butyl ((3R)-1-((1-(10H-phenothiazin-2-yl)ethyl)sulfonyl)piperidin-3-yl)carbamate]",586
12,"CC(c1ccc2c(c1)Nc1ccccc1S2)S(=O)(=O)N1CCN(S(C)(=O)=O)CC1 (stereo not shown) [Compound C16, 2-(1-((4-(methylsulfonyl)piperazin-1-yl)sulfonyl)ethyl)-10H-phenothiazine]",35
13,"C=C(c1ccc(N2CCOCC2)nc1)c1ccc2c(c1)Nc1ccccc1S2 [Compound B45, 4-(5-(1-(10H-phenothiazin-2-yl)ethenyl)pyridin-2-yl)morpholine]",13
14,"CC(c1ccc2c(c1)Nc1ccccc1S2)S(=O)(=O)N1CCCN(C)CC1 (stereo not shown) [Compound C3, 2-(1-((4-methyl-1,4-homopiperazin-1-yl)sulfonyl)ethyl)-10H-phenothiazine]",9
15,"C=C(c1ccc(N)nc1)c1ccc2c(c1)Nc1ccccc1S2 [Compound B44, 5-(1-(10H-phenothiazin-2-yl)ethenyl)pyridin-2-amine]",11
16,"CC(c1ccc2c(c1)Nc1ccccc1S2)S(=O)(=O)N1CCN(CCN2CCOCC2)CC1 (stereo not shown) [Compound C12, 4-(2-(4-((1-(10H-phenothiazin-2-yl)ethyl)sulfonyl)piperazin-1-yl)ethyl)morpholine]",76
17,"COc1cc(C(C)c2ccc3c(c2)Nc2ccccc2S3)ccc1F (stereo not shown) [Compound A51, 2-(1-(4-fluoro-3-methoxylphenyl)ethyl)-10H-phenothiazine]",22
18,"CC(c1ccc2c(c1)Nc1ccccc1S2)S(=O)(=O)N1CCN(C(=O)C2CCCO2)CC1 (stereo not shown) [Compound C11, (4-((1-(10H-phenothiazin-2-yl)ethyl)sulfonyl)piperazin-1-yl)(tetrahydrofuran-2-yl)ketone]",269
19,"CC(c1cccc(NC(=O)OC(C)(C)C)c1)c1ccc2c(c1)Nc1ccccc1S2 (stereo not shown) [Compound A16, (3-(1-(10H-phenothiazin-2-yl)ethyl)phenyl)carbamic acid t-butyl ester]",49
20,"COc1ccc(C(C)c2ccc3c(c2)Nc2ccccc2S3)cc1C (stereo not shown) [Compound A49, 2-(1-(4-methoxyl-3-methylphenyl)ethyl)-10H-phenothiazine]",19
21,"C=C(c1ccc(S(=O)(=O)N2CCOCC2)cc1)c1ccc2c(c1)Nc1ccccc1S2 [Compound B57, 4-((4-(1-(10H-phenothiazin-2-yl)ethenyl)phenyl)sulfonyl)morpholine]",34
22,"CC(c1ccc2c(c1)Nc1ccccc1S2)S(=O)(=O)N1CCOCC1 (stereo not shown) [Compound C1, 4-((1-(10H-phenothiazin-2-yl)ethyl)sulfonyl)morpholine]",68
23,CC(c1ccc2c(c1)Nc1ccccc1S2)S(=O)(=O)N1CCCC1 (stereo not shown) [Compound C21],257
24,"CC(c1ccc2c(c1)Nc1ccccc1S2)S(=O)(=O)N1CCC(O)CC1 (stereo not shown) [Compound C18, 1-((1-(10H-phenothiazin-2-yl)ethyl)sulfonyl)-4-piperidinol]",79
25,"CC(c1ccc2c(c1)Nc1ccccc1S2)S(=O)(=O)N1CCN(c2ccncc2)CC1 (stereo not shown) [Compound C17, 2-(1-((4-(pyridin-4-yl)piperazin-1-yl)sulfonyl)ethyl)-10H-phenothiazine]",5

# More lines, now with the values ahead:
row,EC50 [nM],SMILES
1,31,"CC(c1ccc2c(c1)Nc1ccccc1S2)S(=O)(=O)N1CCSCC1 (stereo not shown) [Compound C20, 2-(1-(thiomorpholinesulfonyl)ethyl)-10H-phenothiazine]"
2,23,"C=C(c1ccc(CC)cc1)c1ccc2c(c1)Nc1ccccc1S2 [Compound B4, 2-(1-(4-ethylphenyl)ethenyl)-10H-phenothiazine]"
3,27,"C=C(c1cccc(C(=O)OCC)c1)c1ccc2c(c1)Nc1ccccc1S2 [Compound B28, ethyl3-(1-(10H-phenothiazin-2-yl)ethenyl)benzoic acid]"
4,5,"CC(c1ccc2c(c1)Nc1ccccc1S2)c1cccc2c1COCO2 (stereo not shown) [Compound A66, 2-(1-(benzo[d][1,3]dioxin-5-yl)ethyl)-10H-phenothiazine]"
5,13,"Cc1ccc(C(C)c2ccc3c(c2)Nc2ccccc2S3)cc1[N+](=O)[O-] (stereo not shown) [Compound A52, 2-(1-(4-methyl-3-nitrophenyl)ethyl)-10H-phenothiazine]"
6,95,"CC(c1ccc2c(c1)Nc1ccccc1S2)S(=O)(=O)N1CCC(O)(c2ccc(Cl)cc2)CC1 (stereo not shown) [Compound C30, 1-((1-(10H-phenothiazin-2-yl)ethyl)sulfonyl)-4-(4-chlorophenyl)-4-piperidinol]"
7,2,"C=C(c1cnc(N2CCN(C)CC2)nc1)c1ccc2c(c1)Nc1ccccc1S2 [Compound B49, 2-(1-(2-(4-methylpiperazin-1-yl)pyrimidin-5-yl)ethenyl)-10H-phenothiazine]"
8,15,"CC(c1ccc(Cl)cc1)c1ccc2c(c1)Nc1ccccc1S2 (stereo not shown) [Compound A20, 2-(1-(4-chlorophenyl)ethyl)-10H-phenothiazine]"
9,29,"C=C(c1ccc2c(c1)Nc1ccccc1S2)c1ccccc1N [Compound B16, 2-(1-(10H-phenothiazin-2-yl)ethenyl)phenylamine]"
10,17,"CC(c1cccc(C(=O)OC(C)(C)C)c1)c1ccc2c(c1)Nc1ccccc1S2 (stereo not shown) [Compound A15, 3-(1-(10H-phenothiazin-2-yl)ethyl)benzoic acid t-butyl ester]"
11,21,"Cc1ccc(C(C)c2ccc3c(c2)Nc2ccccc2S3)cc1C (stereo not shown) [Compound A46, 2-(1-(3,4-dimethylphenyl)ethyl)-10H-phenothiazine]"
12,17,"C=C(c1cccc(N)c1)c1ccc2c(c1)Nc1ccccc1S2 [Compound B17, 3-(1-(10H-phenothiazin-2-yl)ethenyl)phenylamine]"
13,62,"CC(c1ccc2c(c1)Nc1ccccc1S2)S(=O)(=O)N1CCN(CCO)CC1 (stereo not shown) [Compound C13, 2-(4-((1-(10H-phenothiazin-2-yl)ethyl)sulfonyl)piperazin-1-yl)-1-ethanol]"
